pIC50: −log10 of the molar value.
What was measured:
[1] = molecular target: T1, Protein cereblon/F-box-like/WD repeat-containing protein TBL1X (Homo sapiens) (UniProt Q96SW2+O60907); assay: PROTAC activity at CRBN/TBL1X in human Ri-1 cells assessed as TBL1X level relative to control at 0.008 uM incubated for 6 hrs by Western blotting analysis (reference value: 1); type: cell-based
[2] = molecular target: T1, Protein cereblon/F-box-like/WD repeat-containing protein TBL1X (Homo sapiens); assay: PROTAC activity at CRBN/TBL1X in human Ri-1 cells assessed as […] TBL1X level at 0.04 uM incubated for 6 hrs by Western blotting analysis (reference value: 1); type: cell-based
[3] = molecular target: T1, Protein cereblon/F-box-like/WD repeat-containing protein TBL1X (Homo sapiens); assay: PROTAC activity at CRBN/TBL1X in human Ri-1 cells assessed as […] TBL1X level at 0.2 uM incubated for 6 hrs by Western blotting analysis (reference value: 1); type: cell-based
[4] = molecular target: T1, Protein cereblon/F-box-like/WD repeat-containing protein TBL1X (Homo sapiens); assay: PROTAC activity at CRBN/TBL1X in human Ri-1 cells assessed as […] TBL1X level at 1 uM incubated for 6 hrs by Western blotting analysis (reference value: 1); type: cell-based
[5] = molecular target: T1, Protein cereblon/F-box-like/WD repeat-containing protein TBL1X (Homo sapiens); assay: PROTAC activity at CRBN/TBL1X in human Ri-1 cells assessed as […] TBL1X level at 5 uM incubated for 6 hrs by Western blotting analysis (reference value: 1); type: cell-based
[6] = Cytotoxicity against human Ri-1 cells assessed as reduction in cell viability incubated for 72 hrs by MTS assay; type: functional, cell-based; settings: Ri-1, 72 h
Pfeiffer = assay: Cytotoxicity against human Pfeiffer cells assessed as reduction in cell viability incubated for 72 hrs by MTS assay; type: functional, cell-based
Granta-519 = assay: Cytotoxicity against human Granta-519 cells assessed as reduction in cell viability incubated for 72 hrs by MTS assay; type: functional, cell-based; settings: Granta-519, 72 h
[7] = molecular target: T1, Protein cereblon/F-box-like/WD repeat-containing protein TBL1X (Homo sapiens); assay: PROTAC activity at CRBN/TBL1X in human Ri-1 cells assessed as decrease in TBL1X level incubated for 6 hrs by Western blotting analysis; type: cell-based; settings: dose 0.008-5 µM
[8] = molecular target: T1, Protein cereblon/F-box-like/WD repeat-containing protein TBL1X (Homo sapiens); assay: PROTAC activity at CRBN/TBL1X in human Ri-1 cells assessed as […] TBL1X level at 0.2 uM incubated for 6 hrs in presence of tega-vivint by Western blotting analysis (reference value: 1); type: cell-based
[9] = molecular target: T1, Protein cereblon/F-box-like/WD repeat-containing protein TBL1X (Homo sapiens); assay: PROTAC activity at CRBN/TBL1X in human Ri-1 cells assessed as […] TBL1X level at 0.2 uM incubated for 6 hrs in presence of pomalidomide by Western blotting analysis (reference value: 1); type: cell-based
[10] = molecular target: T1, Protein cereblon/F-box-like/WD repeat-containing protein TBL1X (Homo sapiens); assay: PROTAC activity at CRBN/TBL1X in human Ri-1 cells assessed as […] TBL1X level at 0.2 uM incubated for 6 hrs in presence of MG-132 by Western blotting analysis (reference value: 1); type: cell-based

T1 sequence (O60907 whole entry, looked up): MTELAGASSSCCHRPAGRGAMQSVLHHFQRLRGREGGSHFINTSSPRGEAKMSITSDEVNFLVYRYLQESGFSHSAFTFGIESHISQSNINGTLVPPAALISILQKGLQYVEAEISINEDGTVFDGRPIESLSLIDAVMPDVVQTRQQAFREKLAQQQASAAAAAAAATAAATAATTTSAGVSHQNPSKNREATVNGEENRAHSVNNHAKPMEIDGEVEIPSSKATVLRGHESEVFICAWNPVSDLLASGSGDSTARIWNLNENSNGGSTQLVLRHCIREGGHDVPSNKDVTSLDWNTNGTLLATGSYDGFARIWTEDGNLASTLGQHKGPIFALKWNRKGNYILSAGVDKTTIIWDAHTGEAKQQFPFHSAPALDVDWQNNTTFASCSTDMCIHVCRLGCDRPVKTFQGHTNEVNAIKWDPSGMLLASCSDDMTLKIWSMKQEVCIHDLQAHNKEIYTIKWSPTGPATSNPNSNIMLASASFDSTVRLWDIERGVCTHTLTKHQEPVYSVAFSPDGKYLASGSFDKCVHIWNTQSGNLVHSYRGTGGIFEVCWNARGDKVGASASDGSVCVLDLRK
T1 sequence (Q96SW2 whole entry, looked up): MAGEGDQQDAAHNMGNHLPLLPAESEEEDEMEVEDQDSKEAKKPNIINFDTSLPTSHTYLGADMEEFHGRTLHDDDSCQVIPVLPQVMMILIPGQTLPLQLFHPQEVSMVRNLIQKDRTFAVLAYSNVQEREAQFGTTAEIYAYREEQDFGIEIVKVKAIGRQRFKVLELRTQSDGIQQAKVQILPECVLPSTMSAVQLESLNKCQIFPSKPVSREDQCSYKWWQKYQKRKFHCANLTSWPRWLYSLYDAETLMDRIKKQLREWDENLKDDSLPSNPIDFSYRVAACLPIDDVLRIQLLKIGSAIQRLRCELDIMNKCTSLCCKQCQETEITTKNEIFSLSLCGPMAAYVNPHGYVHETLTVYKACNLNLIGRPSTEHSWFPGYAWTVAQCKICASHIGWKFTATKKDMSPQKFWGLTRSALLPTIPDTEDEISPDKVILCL

Row | Structure (SMILES) | fold change (FC) [1] | fold change (FC) [2] | fold change (FC) [3] | fold change (FC) [4] | fold change (FC) [5] | Activity [7] | fold change (FC) [8] | fold change (FC) [9] | fold change (FC) [10] | pIC50 [6] | pIC50 (Pfeiffer) | pIC50 (Granta-519)
1 | CC1CC(C)CN(S(=O)(=O)c2ccc3c(c2)/C(=N/O)c2cc(S(=O)(=O)N4CCN(C(=O)CCCCCCNc5cccc6c5C(=O)N(C5CCC(=O)NC5=O)C6=O)CC4)ccc2/C3=N\O)C1 (configuration not stated) | 0.91 | 1.03 | 1.16 | 1.36 | 1.51 | – | – | – | – | 6.22 | 6.46 | 6.36
2 | CC1CC(C)CN(S(=O)(=O)c2ccc3c(c2)/C(=N\O)c2cc(S(=O)(=O)N4CCN(C(=O)CCOCCOCCOCCNc5cccc6c5C(=O)N(C5CCC(=O)NC5=O)C6=O)CC4)ccc2/C3=N\O)C1 (configuration not stated) | 0.9 | 1.02 | 0.92 | 0.79 | 0.97 | – | – | – | – | < 4.70 | < 4.70 | < 4.70
3 | CC1CC(C)CN(S(=O)(=O)c2ccc3c(c2)/C(=N/O)c2cc(S(=O)(=O)N4CCN(C(=O)CCNc5cccc6c5C(=O)N(C5CCC(=O)NC5=O)C6=O)CC4)ccc2/C3=N\O)C1 (configuration not stated) | 1 | 1.3 | 1.28 | 1.23 | 1.34 | – | – | – | – | 6.10 | 6.25 | 6.40
4 | C[C@@H]1C[C@H](C)CN(S(=O)(=O)c2ccc3c(c2)C(=NO)c2cc(S(=O)(=O)N4C[C@H](C)C[C@H](C)C4)ccc2C3=NO)C1 | – | – | – | – | – | – | – | – | – | 7.07 | 6.76 | 7.03
5 | CC1CC(C)CN(S(=O)(=O)c2ccc3c(c2)/C(=N/O)c2cc(S(=O)(=O)N4CCN(C(=O)CCCCNc5cccc6c5C(=O)N(C5CCC(=O)NC5=O)C6=O)CC4)ccc2/C3=N\O)C1 (configuration not stated) | 0.9 | 0.94 | 1.02 | 0.91 | 0.6 | – | – | – | – | 6.25 | 6.19 | 6.30
6 | CC1CC(C)CN(S(=O)(=O)c2ccc3c(c2)/C(=N\O)c2cc(S(=O)(=O)N4CCN(C(=O)CCOCCOCCNc5cccc6c5C(=O)N(C5CCC(=O)NC5=O)C6=O)CC4)ccc2/C3=N\O)C1 (configuration not stated) | 1.07 | 0.99 | 0.94 | 1.06 | 0.97 | – | – | – | – | < 4.70 | < 4.70 | < 4.70
7 | CC1CC(C)CN(S(=O)(=O)c2ccc3c(c2)/C(=N/O)c2cc(S(=O)(=O)N4CCN(C(=O)CCCCCCCCCCNc5cccc6c5C(=O)N(C5CCC(=O)NC5=O)C6=O)CC4)ccc2/C3=N\O)C1 (configuration not stated) | 0.98 | 1.04 | 0.99 | 0.92 | 1.08 | – | – | – | – | 5.93 | 5.60 | 5.94
8 | CC1CC(C)CN(S(=O)(=O)c2ccc3c(c2)/C(=N/O)c2cc(S(=O)(=O)N4CCN(C(=O)CCOCCNc5cccc6c5C(=O)N(C5CCC(=O)NC5=O)C6=O)CC4)ccc2/C3=N\O)C1 (configuration not stated) | 0.91 | 1.11 | 1.59 | 1.15 | 0.79 | – | – | – | – | < 4.70 | < 4.70 | < 4.70

Continued, in another order:

Row | fold change (FC) [1] | fold change (FC) [2] | fold change (FC) [3] | fold change (FC) [4] | fold change (FC) [5] | Activity [7] | fold change (FC) [8] | fold change (FC) [9] | fold change (FC) [10] | Structure (SMILES) | pIC50 [6] | pIC50 (Pfeiffer) | pIC50 (Granta-519)
9 | 0.6 | 0.49 | 0.46 | 0.59 | 0.58 | – | – | – | – | CC1CC(C)CN(S(=O)(=O)c2ccc3c(c2)C(=NO)c2cc(S(=O)(=O)N4CC(C)CC(C)C4)ccc2C3=NOCCCNC(=O)CCOCCOCCOCCNc2cccc3c2C(=O)N(C2CCC(=O)NC2=O)C3=O)C1 (configuration not stated) | < 4.70 | < 4.70 | < 4.70
10 | 0.97 | 0.56 | 0.41 | 0.5 | 0.54 | Dose-Dependent Effect | – | – | – | CC1CC(C)CN(S(=O)(=O)c2ccc3c(c2)C(=NO)c2cc(S(=O)(=O)N4CC(C)CC(C)C4)ccc2C3=NOCCCNC(=O)CCNc2cccc3c2C(=O)N(C2CCC(=O)NC2=O)C3=O)C1 (configuration not stated) | 6.19 | 6.72 | 6.49
11 | 0.8 | 0.74 | 0.61 | 0.74 | 0.44 | Dose-Dependent Effect | – | – | – | CC1CC(C)CN(S(=O)(=O)c2ccc3c(c2)C(=NO)c2cc(S(=O)(=O)N4CC(C)CC(C)C4)ccc2C3=NOCCCNC(=O)CCCCCCNc2cccc3c2C(=O)N(C2CCC(=O)NC2=O)C3=O)C1 (configuration not stated) | 6.03 | 6.45 | 6.28
12 | 0.4 | 0.47 | 0.51 | 0.43 | 0.48 | – | – | – | – | CC1CC(C)CN(S(=O)(=O)c2ccc3c(c2)C(=NO)c2cc(S(=O)(=O)N4CC(C)CC(C)C4)ccc2C3=NOCCCNC(=O)CCOCCNc2cccc3c2C(=O)N(C2CCC(=O)NC2=O)C3=O)C1 (configuration not stated) | 5.87 | 6.26 | 5.98
13 | 0.37 | 0.35 | 0.63 | 0.64 | 1.03 | – | – | – | – | CC1CC(C)CN(S(=O)(=O)c2ccc3c(c2)C(=NO)c2cc(S(=O)(=O)N4CC(C)CC(C)C4)ccc2C3=NOCCCNC(=O)CCOCCOCCNc2cccc3c2C(=O)N(C2CCC(=O)NC2=O)C3=O)C1 (configuration not stated) | < 4.70 | 5.73 | < 4.70
14 | 0.64 | 0.43 | 0.44 | 0.18 | 0.43 | Dose-Dependent Effect | – | – | – | CC1CC(C)CN(S(=O)(=O)c2ccc3c(c2)C(=NO)c2cc(S(=O)(=O)N4CC(C)CC(C)C4)ccc2C3=NOCCCNC(=O)CCCCCCCCCCNc2cccc3c2C(=O)N(C2CCC(=O)NC2=O)C3=O)C1 (configuration not stated) | < 4.70 | < 4.70 | < 4.70
15 | 0.4 | 0.27 | 0.53 | 0.61 | 1.46 | Dose-Dependent Effect | 0.87 | 0.82 | 0.92 | CC1CC(C)CN(S(=O)(=O)c2ccc3c(c2)C(=NO)c2cc(S(=O)(=O)N4CC(C)CC(C)C4)ccc2C3=NOCCCNC(=O)CCCCNc2cccc3c2C(=O)N(C2CCC(=O)NC2=O)C3=O)C1 (configuration not stated) | 6.10 | 6.40 | 6.28

From ChEMBL document CHEMBL6071187, “Design, Synthesis, and Biological Evaluation of Selective TBL1X Degraders” (ACS Med Chem Lett, 2024)
